Assay results from patent US9718790B2, “Triazine derivative and pharmaceutical composition having an analgesic activity comprising the same” (SHIONOGI & CO., LTD., priority 2010, dated 2017).

Target: human P2X3 receptor (Homo sapiens (Human), UniProt P56373)
Assay: Evaluation of human P2X3 receptor inhibitory activity (Fluo-3 calcium fluorescence, FDSS 3000, ATP stimulation);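 further: stimulus was 50 nM ATP with fluorescence followed for 3 min, and the response per well was peak post-ATP fluorescence divided by the reading at measurement start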
Type: cell-based
Conditions: C6BU-1 cells stably expressing human P2X3 receptor

Chain of human P2X3 receptor (P56373 whole entry): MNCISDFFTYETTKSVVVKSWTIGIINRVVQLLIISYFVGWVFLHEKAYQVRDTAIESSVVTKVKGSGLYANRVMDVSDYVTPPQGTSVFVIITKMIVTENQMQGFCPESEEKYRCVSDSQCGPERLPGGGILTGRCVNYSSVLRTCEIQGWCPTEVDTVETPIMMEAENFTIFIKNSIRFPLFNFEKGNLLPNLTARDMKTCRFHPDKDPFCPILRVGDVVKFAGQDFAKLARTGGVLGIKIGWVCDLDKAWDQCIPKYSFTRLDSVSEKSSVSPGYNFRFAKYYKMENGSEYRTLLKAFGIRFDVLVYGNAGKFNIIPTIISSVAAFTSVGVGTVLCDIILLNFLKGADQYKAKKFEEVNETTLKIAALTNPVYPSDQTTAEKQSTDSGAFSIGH

Compound	IC50 [nM]
Cc1ccc(Cn2c(=O)n(C[C@H](C)C(=O)O)c(=O)[nH]/c2=N\c2ccc(CC(C)C)c(Cl)c2)cc1 [Compound I-1373]	4
CCn1c(=O)[nH]/c(=N\c2ccc(Oc3ncc(C(=O)O)s3)cc2)n(Cc2ccc(Cl)cc2)c1=O [Compound I-2153]	6

Same assay, conditions: C6BU-1 cells stably expressing human P2X3 receptor, Fluo-3 fluorescence, FDSS 3000

Compound	IC50 [nM]
Cc1ccc(Cn2c(=O)n([C@@H](C)[C@@H](C)C(=O)O)c(=O)[nH]/c2=N\c2ccc(OC(C)C)c(Cl)c2)cc1 [Compound I-0931]	12
Cc1cc(Oc2ccc(/N=c3\[nH]c(=O)n(C[C@H](O)CO)c(=O)n3Cc3ccc(Cl)cc3)cc2)no1 [Compound I-1757]	12
O=c1[nH]/c(=N\c2ccc(OCC3CC3)cc2)n(Cc2ccc(Cl)cc2)c(=O)n1CC(CO)CO [Compound I-1849]	7

Same assay, conditions: human P2X3 receptor, Test Example 1

Compound	IC50 [nM]
Cc1cc(/N=c2\[nH]c(=O)n([C@@H](C)[C@@H](C)C(=O)O)c(=O)n2Cc2ccc(Cl)cc2)ccc1OC(C)C [Compound I-0826]	19
Cn1c(=O)[nH]/c(=N\c2ccc(Oc3cccc(C(=O)O)n3)cc2)n(Cc2ccc(Cl)cc2)c1=O [Compound I-2272]	8
CCn1c(=O)[nH]/c(=N\c2ccc(Oc3ccc(C(N)=O)nn3)cc2)n(Cc2ccc(Cl)cc2)c1=O [Compound I-2283]	< 4
CCOC(=O)Cn1c(=O)[nH]/c(=N\c2ccc(Oc3ncccn3)cc2)n(Cc2ccc(Cl)cc2)c1=O [Compound I-2657]	7
CCOC(=O)Cn1c(=O)[nH]/c(=N\c2ccc(Oc3cccnn3)cc2)n(Cc2ccc(Cl)cc2)c1=O [Compound I-2658]	5
O=C(O)Cn1c(=O)[nH]/c(=N\c2ccc(Oc3ncns3)cc2)n(Cc2ccc(Cl)cc2)c1=O [Compound I-2659]	277
COC(=O)CCn1c(=O)[nH]/c(=N\c2ccc(Oc3cc(C#N)ccn3)cc2)n(Cc2ccc(C)cc2)c1=O [Compound I-2660]	3
Cc1ccc(Cn2c(=O)n(CCC(=O)O)c(=O)[nH]/c2=N\c2ccc(Oc3cc(C#N)ccn3)cc2)cc1 [Compound I-2661]	15
O=C(O)Cn1c(=O)[nH]/c(=N\c2ccc(Oc3cccnn3)cc2)n(Cc2ccc(Cl)cc2)c1=O [Compound I-2663]	330
CCOC(=O)Cn1c(=O)[nH]/c(=N\c2ccc(Oc3ccnnc3)cc2)n(Cc2ccc(Cl)cc2)c1=O [Compound I-2664]	3
O=C(O)Cn1c(=O)[nH]/c(=N\c2ccc(Oc3ccnnc3)cc2)n(Cc2ccc(Cl)cc2)c1=O [Compound I-2665]	85
COC(=O)CCn1c(=O)[nH]/c(=N\c2ccc(Oc3cccc(C#N)n3)cc2)n(Cc2ccc(Cl)cc2)c1=O [Compound I-2666]	2
N#Cc1cccc(Oc2ccc(/N=c3\[nH]c(=O)n(CCC(=O)O)c(=O)n3Cc3ccc(Cl)cc3)cc2)n1 [Compound I-2667]	10
Cc1ccc(Cn2c(=O)n(CCC(=O)O)c(=O)[nH]/c2=N\c2ccc(Oc3cc(C(=O)O)ccn3)cc2)cc1 [Compound I-2671]	36
CC(C)(O)Cn1c(=O)[nH]/c(=N\c2ccc(Oc3ccon3)cc2)n(Cc2ccc(Cl)cc2)c1=O [Compound I-2672]	11
CNC(=O)Cn1c(=O)[nH]/c(=N\c2ccc(Oc3ncns3)cc2)n(Cc2ccc(Cl)cc2)c1=O [Compound I-2673]	7
O=C(Cn1c(=O)[nH]/c(=N\c2ccc(Oc3ncns3)cc2)n(Cc2ccc(Cl)cc2)c1=O)NCCO [Compound I-2674]	5
NC(=O)Cn1c(=O)[nH]/c(=N\c2ccc(Oc3cnsn3)cc2)n(Cc2ccc(Cl)cc2)c1=O [Compound I-2675]	13
CNC(=O)Cn1c(=O)[nH]/c(=N\c2ccc(Oc3cnsn3)cc2)n(Cc2ccc(Cl)cc2)c1=O [Compound I-2676]	13
O=C(Cn1c(=O)[nH]/c(=N\c2ccc(Oc3cnsn3)cc2)n(Cc2ccc(Cl)cc2)c1=O)NCCO [Compound I-2677]	7
Cc1nsc(Oc2ccc(/N=c3\[nH]c(=O)n(CC(=O)NCCO)c(=O)n3Cc3ccc(Cl)cc3)cc2)n1 [Compound I-2678]	3
O=C(Cn1c(=O)[nH]/c(=N\c2ccc(Oc3cccc(F)n3)cc2)n(Cc2ccc(Cl)cc2)c1=O)NCCO [Compound I-2679]	5
O=C(Cn1c(=O)[nH]/c(=N\c2ccc(Oc3ccon3)cc2)n(Cc2ccc(Cl)cc2)c1=O)NCCO [Compound I-2680]	12
O=C(Cn1c(=O)[nH]/c(=N\c2ccc(Oc3ccon3)cc2)n(Cc2ccc(Cl)cc2)c1=O)NCC(F)(F)F [Compound I-2681]	4
COC(=O)CCn1c(=O)[nH]/c(=N\c2ccc(Oc3cccc(C(N)=O)n3)cc2)n(Cc2ccc(C)cc2)c1=O [Compound I-2682]	2
Cc1ccc(Cn2c(=O)n(CCC(=O)O)c(=O)[nH]/c2=N\c2ccc(Oc3cccc(C(N)=O)n3)cc2)cc1 [Compound I-2683]	12

Compound	IC50 [nM]
COC(=O)CCn1c(=O)[nH]/c(=N\c2ccc(Oc3cccc(C(N)=O)n3)cc2)n(Cc2ccc(Cl)cc2)c1=O [Compound I-2684]	2
O=c1[nH]/c(=N\c2ccc(Oc3cccc(O)n3)cc2)n(Cc2ccc(Cl)cc2)c(=O)n1CC(CO)CO [Compound I-2685]	12
NC(=O)Cn1c(=O)[nH]/c(=N\c2ccc(Oc3ncccn3)cc2)n(Cc2ccc(Cl)cc2)c1=O [Compound I-2686]	36
CNC(=O)Cn1c(=O)[nH]/c(=N\c2ccc(Oc3ncccn3)cc2)n(Cc2ccc(Cl)cc2)c1=O [Compound I-2687]	35
O=C(Cn1c(=O)[nH]/c(=N\c2ccc(Oc3ncccn3)cc2)n(Cc2ccc(Cl)cc2)c1=O)NCCO [Compound I-2688]	18
NC(=O)Cn1c(=O)[nH]/c(=N\c2ccc(Oc3cccnn3)cc2)n(Cc2ccc(Cl)cc2)c1=O [Compound I-2689]	20
CNC(=O)Cn1c(=O)[nH]/c(=N\c2ccc(Oc3cccnn3)cc2)n(Cc2ccc(Cl)cc2)c1=O [Compound I-2690]	18
O=C(Cn1c(=O)[nH]/c(=N\c2ccc(Oc3cccnn3)cc2)n(Cc2ccc(Cl)cc2)c1=O)NCCO [Compound I-2691]	8
O=c1[nH]/c(=N\c2ccc(Oc3cccnn3)cc2)n(Cc2ccc(Cl)cc2)c(=O)n1CC(CO)CO [Compound I-2692]	8
NC(=O)c1cccc(Oc2ccc(/N=c3\[nH]c(=O)n(CCC(=O)O)c(=O)n3Cc3ccc(Cl)cc3)cc2)n1 [Compound I-2693]	12
NC(=O)NC(=O)Cn1c(=O)[nH]/c(=N\c2ccc(Oc3ccon3)cc2)n(Cc2ccc(Cl)cc2)c1=O [Compound I-2694]	3
NC(=O)Cn1c(=O)[nH]/c(=N\c2ccc(Oc3ccnnc3)cc2)n(Cc2ccc(Cl)cc2)c1=O [Compound I-2695]	10
CNC(=O)Cn1c(=O)[nH]/c(=N\c2ccc(Oc3ccnnc3)cc2)n(Cc2ccc(Cl)cc2)c1=O [Compound I-2696]	8
Cc1nsc(Oc2ccc(/N=c3\[nH]c(=O)n(CCC(=O)O)c(=O)n3Cc3ccc(Cl)cc3)cc2)n1 [Compound I-2697]	19
O=C(O)CCn1c(=O)[nH]/c(=N\c2ccc(Oc3ncns3)cc2)n(Cc2ccc(Cl)cc2)c1=O [Compound I-2698]	25
CCn1c(=O)nc(Nc2ccc(Oc3ccc(C(=O)O)nn3)cc2)n(Cc2ccc(F)cc2)c1=O [Compound I-2699]	134
CCn1c(=O)[nH]/c(=N\c2ccc(Oc3ccc(C(=O)OC)cn3)cc2)n(C[C@H]2CC[C@H](C)CC2)c1=O [Compound I-2700]	353
CCn1c(=O)[nH]/c(=N\c2ccc(Oc3ccc(C(=O)OC)nn3)cc2)n(C[C@H]2CC[C@H](C)CC2)c1=O [Compound I-2701]	1
O=c1[nH]/c(=N\c2ccc(Oc3ccnc(Cl)c3)cc2)n(Cc2ccc(Cl)cc2)c(=O)n1CC(CO)CO [Compound I-2704]	4
O=c1[nH]/c(=N\c2ccc(Oc3ccnc(F)c3)cc2)n(Cc2ccc(Cl)cc2)c(=O)n1CC(CO)CO [Compound I-2705]	3
O=c1[nH]/c(=N\c2ccc(Oc3ncccc3F)cc2)n(Cc2ccc(Cl)cc2)c(=O)n1CC(CO)CO [Compound I-2706]	6
Cc1nsc(Oc2ccc(/N=c3\[nH]c(=O)n(C[C@H](O)CO)c(=O)n3Cc3ccc(F)cc3)cc2F)n1 [Compound I-2707]	7
Cc1nsc(Oc2ccc(/N=c3\[nH]c(=O)n(C[C@H](O)CO)c(=O)n3Cc3ccc(Cl)cc3)cc2F)n1 [Compound I-2708]	2
Cc1cncc(Oc2ccc(/N=c3\[nH]c(=O)n(CC(CO)CO)c(=O)n3Cc3ccc(Cl)cc3)cc2)n1 [Compound I-2709]	6
O=c1[nH]/c(=N\c2ccc(Oc3cnccn3)cc2)n(Cc2ccc(Cl)cc2)c(=O)n1CC(CO)CO [Compound I-2710]	6

Test system: partial sciatic nerve ligation model in rats
Assay: Analgesic effect in a Seltzer model, Evaluation (1): mechanical allodynia, von Frey filaments
Type: in vivo
Conditions: rat, oral single administration, at 3 hours, read-out: analgesic effect, percent reversal of mechanical allodynia
Excerpt: Rats were anaesthetized using isoflurane/O2 inhalation anaesthesia. After induction of anesthesia, the left thigh was shaved. An incision was made in the skin just below the hip bone. The muscle was bluntly dissected to expose the sciatic nerve. One third (⅓) to one half (½) of the sciatic nerve thickness was tightly ligated and the wound was closed. The right thigh is used as a sham-operated control. The right thigh undergoes an identical procedure with the left hind limb, however, the sciatic nerve is not manipulated or ligated.
Two weeks after nerve ligation, the effect on mechanical allodynia was assessed using a series of von Frey filaments. For habituation, the rats were placed into a plastic cage on a wire mesh bottom. The mechanical sensitivity (mechanical threshold) of the hind paws was estimated with a series of von Frey filaments (0.4-20 g). The measurement of mechanical sensitivity of the right and left hind paws was performed to obtain predose mechanical sensitivity. The rats showing thee threshold change from 0.6 to 2 g (in nerve ligated side) and 8 to 15 g (in sham operated side) were used in the experiments. On the day belone the experiment, the rats were evaluated with a series of von Frey filaments to familiarize them with the test procedure. The adopted animal was administrated with the test compounds. The test compounds were homogenized with mortar and pestle and suspended or diluted in 0.5% Methyl Cellulose to prepare 0.1-2.0 mg/mL/kg suspension and orally administered to rat using a syringe attached with a sonde. Post-dose mechanical sensitivities of the right and left hind paws were measured at approximately 1 to 5 hours after drug administration. Percent reversal of mechanical allodynia for each rat was calculated using the following formula. The analgesic effects of the compounds were compared.

Compound	inhibition in vivo at 3 mg/kg [%]
Cc1cc(/N=c2\[nH]c(=O)n([C@@H](C)[C@@H](C)C(=O)O)c(=O)n2Cc2ccc(Cl)cc2)ccc1OC(C)C [Compound I-0826]	> 30
Cc1ccc(Cn2c(=O)n([C@@H](C)[C@@H](C)C(=O)O)c(=O)[nH]/c2=N\c2ccc(OC(C)C)c(Cl)c2)cc1 [Compound I-0931]	> 30
Cc1ccc(Cn2c(=O)n(C[C@H](C)C(=O)O)c(=O)[nH]/c2=N\c2ccc(CC(C)C)c(Cl)c2)cc1 [Compound I-1373]	> 30
Cc1cc(Oc2ccc(/N=c3\[nH]c(=O)n(C[C@H](O)CO)c(=O)n3Cc3ccc(Cl)cc3)cc2)no1 [Compound I-1757]	> 30
O=c1[nH]/c(=N\c2ccc(OCC3CC3)cc2)n(Cc2ccc(Cl)cc2)c(=O)n1CC(CO)CO [Compound I-1849]	> 30
CCn1c(=O)[nH]/c(=N\c2ccc(Oc3ncc(C(=O)O)s3)cc2)n(Cc2ccc(Cl)cc2)c1=O [Compound I-2153]	> 30
Cn1c(=O)[nH]/c(=N\c2ccc(Oc3cccc(C(=O)O)n3)cc2)n(Cc2ccc(Cl)cc2)c1=O [Compound I-2272]	> 30
CCn1c(=O)[nH]/c(=N\c2ccc(Oc3ccc(C(N)=O)nn3)cc2)n(Cc2ccc(Cl)cc2)c1=O [Compound I-2283]	> 30
